From patent US11591284B2, “Compounds for the treatment of neuromuscular disorders” (NMD Pharma A/S, priority 2017, dated 2023)
Like-named read-outs stand apart in the source and are kept apart here.

Experiments:
[1] = tested on: isolated rat soleus muscles; assay: Recovery of nerve-stimulated force in isolated rat soleus muscles exposed to sub-maximal tubocurarine; conditions: for 500 μM % change after addition: 500 μM compound
Experimental: FIGS. 3A-3B. […] The motor nerve was stimulated every 10 min for 2 s with 30 Hz with field stimulation using short duration pulses. […] Traces are shown before addition tubocurarine, after 40 min with tubocurarine, and after 110 min tubocurarine. […] This recovery of force was used in Table 1.
(§1) In all contraction experiments, isometric force production was determined and force produced during contractions was quantified by measuring the integral of the force response (AUC). Stimulation and force recordings have been described elsewhere. […] In these latter experiments, extracellular recordings of action potentials (M-waves) could be measured without temporal overlap with stimulation artefacts.
(§2) To initially confirm that inhibition of CIC-1 ion channels can be used to recover contractile force in muscle with reduced neuromuscular transmission, isolated nerve-muscle preparations were first exposed to either tubocurarine (FIG. 2A) or elevated Mg^2+ (FIG. 2B) and then a specific CIC-1 inhibitor (9-AC) was added.
To identify CIC-1 inhibitors that could be used for treatment of neuromuscular disorders we repeated the experiment shown in FIG. 2A but instead of adding 9-AC we added the compounds of interest in different concentrations within the range from 10 to 500 μM. […] For comparison with the muscle only exposed to tubocurarine (grey trace), the two traces have been overlaid. […] For comparison, muscles only exposed to tubocurarine have been included. The dotted line indicates the recovery of force with C8 when compared to the force production before its addition. This value was used in Table 1 for evaluation of the efficacy of the different compounds in recovering force.

[2] = tested on: isolated rat soleus muscles; assay: Recovery of nerve-stimulated force in isolated rat soleus muscles exposed to 3.5 mM Mg2+
Experimental: as §1
The aim was to find compounds that by inhibition of CIC-1 channels can recover nerve-stimulated force under conditions of fatigue including conditions where fatigue is caused by compromised neuromuscular transmission. Neuromuscular transmission dysfunction can develop because of both pre- and/or post-synaptic complications in connection with a disorder or as part of neuromuscular blockade during/after surgery. In the initial series of drug testing, experiments were performed with isolated muscles in the presence of sub-maximal ACh receptor antagonist tubocurarine. Since the inclusion of tubocurarine caused a partial loss of neuromuscular transmission this experiment mimics the conditions in myasthenia gravis and neuromuscular blockade. To mimic conditions with pre-synaptic complication (Lambert Eaton syndrome, motor neuron disorder, polyneuropathy) the intact nerve-muscle preparations were incubated at elevated extracellular Mg^2+, which is known to suppress release of ACh from nerve terminals of motor neurons.
as §2
The next series of experiments determined whether the compounds that recovered nerve-stimulated force in the presence of tubocurarine could also recover nerve-stimulated force at elevated extracellular Mg^2+.

rats [3] = assay: Rotarod running performance of rats after I.P. tubocurarine; type: in vivo, rat; conditions: 20 mg/kg I.P., 2 hrs before tubocurarine (0.13 mg/kg I.P.); tested 21 min after tubocurarine; sham around 2%
Experimental: FIGS. 9A-9B. […] FIG. 9A illustrates the design of the experiments. Prior to Day One the animals had been familiarized to the rotarod in three training sessions distributed over two days.
(§3) In both series of experiments, running performance was tested on a rotarod using a protocol where the rod was accelerated gradually over a 5 min period, and the running time and covered distance before falling off the rod were measured. […] Experiments with tubocurarine were carried out over two days, and on each day the effect of tubocurarine on running performance was tested. On the first day only tubocurarine was injected. […] On the second day, the animals were first allowed to run on the rotarod, and all animals performed normally. […] The allocation of the animals into the two groups (C8 or sham) was random and unknown to the experimenter (blinded experimental design).
In the first series of in vivo experiments, myasthenia gravis was simply mimicked by I.P. injection of tubocurarine (0.13 mg/kg) in animals that had been familiarized to running on the rotarod. On the first of two consecutive days, tubocurarine was injected I.P. and the running performance of the animal was tested 21 minutes after this injection. On the second day of experimentation, the animals first performed a test run to ensure that they were no longer affected by the tubocurarine injected the day before. […]

isolated human muscles = conditions: human muscle; 150 μM (FIG. 8A)
[4] = tested on: isolated rat soleus muscles; assay: Recovery of nerve-stimulated force in isolated rat soleus muscles with ACh receptors inhibited by 2 μM rocuronium; conditions: 50 μM compound added after 2 μM rocuronium had reduced force to 51±5%; 8 muscles; p<0.01
Experimental: In a separate series of experiments with 8 isolated rat soleus muscles, ACh receptors were inhibited using 2 μM rocuronium, which is a clinically used neuromuscular blocking agent. Under these conditions the nerve-stimulated force was reduced to 51±5% of force before rocuronium. […] This illustrates the potential of these compounds to be used as reversal agents.

rats [5] = assay: Rotarod running performance in passive myasthenia gravis induced with MAB35 monoclonal antibody; type: in vivo, rat; conditions: MAB35 model, compared with sham
Experimental: FIG. 10. […] Prior to I.P. injection of MAB35 the animals had been familiarized to the rotarod over three training sessions distributed over two days. […] After this treatment performance was monitored every second hour. *Indicates significant different as evaluated using student t-test.
as §3
In experiments with MAB35, animals were first familiarized with the rotarod over two consecutive days and then injected I.P. with MAB35. After injection, rotarod performance was then again monitored regularly over the consecutive two days. […] A considerable number of animals, however, became moribund failing to walk and they had altered ventilation (rapid) and pronounced ptosis. These animals were not included in experiments. […]

soleus muscles = assay: Mg2+ concentration required to depress nerve-stimulated force by 50% (Kd,Mg2+) in soleus muscles; set-up: species or system rat; conditions: combination of C8 and 3,4-diaminopyridine
Experimental: FIGS. 6A-6E. […] Muscles from 4-week-old rats were stimulated to contract by activating the motor nerve with short duration pulses in field stimulation. Muscles contracted every 10 min for 2 s in response to 30 Hz stimulation. Four different experimental conditions were used. […] C) similar to A) but this muscle had been pre-incubated with 3,4-AP. […] The force integral (AUC) was determined at each extracellular Mg^2+ concentration. AUC was plotted against Mg^2+ concentration and the data was fitted to a sigmoidal function. This provided the extracellular Mg^2+ concentration that was required to reduce the nerve-stimulated force to 50% (Mg50) under the four different conditions (see Table 5).
While the use of tubocurarine mimics conditions with reduced neuromuscular transmission due to post-synaptic dysfunction (myasthenia gravis, neuromuscular blockade), the experiments with elevated extracellular Mg^2+ mimics conditions with pre-synaptic dysfunction akin to a range of neuromuscular disorders including Lambert Eaton syndrome, motor neuron disorders and polyneuropathy. […] Based on this it was determined whether recovery of nerve-stimulated force at elevated extracellular Mg^2+ with CIC-1 inhibiting compounds could be added to force recovery with 3,4-AP. […] To quantify the effect of compounds on Mg^2+ sensitivity the force at the different Mg^2+ concentrations was determined. […]

rat soleus muscle = type: cell-based; conditions: 10 and 25 μM; 1 μM μ-conotoxin GiiiB
[6] = Pharmacokinetic analysis of a single I.P. dose in rats; type: in vivo, Sprague-Dawley rats; conditions: rat, single I.P. dose 10 mg/kg, plasma
Experimental: This part of the study was performed by Pipeline Biotech A/S (Spørring, Denmark). […] Plasma concentrations (free and bound) were determined by OnTarget Chemistry (Uppsala, Sweden, Project No.: PB243-001).
Before conducting in vivo experiments with animal models of myasthenia gravis, some pharmacokinetic details were obtained for C8 in response to one-bolus I.P. injection.

[7] = 150 μM compound, % change in AUC force compared to AUC after 40 min in tubocurarine, before addition
[8] = % change in AUC force compared to AUC after 40 min in tubocurarine, before addition

Structure (SMILES): O=C(O)c1c2ccccc2cc2ccccc12 [Compound 9-AC, reference compound]
- recovery of force and M-wave signal ([1]; 9-AC added after tubocurarine (FIG. 2A)): marked recovery of both force and M-wave signal
- recovery of force and M-wave signal ([2]; 9-AC added at elevated Mg2+ (FIG. 2B)): marked recovery of both force and M-wave signal

Structure (SMILES): C[C@H](OCc1ccccc1)C(=O)O [Compound C5, (2S)-2-(benzyloxy)propanoic acid]
- 150 μM % change after addition [1, 7]: 1%
- 500 μM % change after addition [1, 8]: 42%

Structure (SMILES): CC(C(=O)O)S(=O)(=O)c1ccc(F)cc1 (stereo not shown) [Compound C6, 2-(4-fluorobenzenesulfonyl)propanoic acid]
- 150 μM % change after addition [1, 7]: −8%
- 500 μM % change after addition [1, 8]: 9%

Structure (SMILES): CCC(Oc1ccc(Cl)cc1)C(=O)O (stereo not shown) [Compound C7, 2-(4-chlorophenoxy)butanoic acid]
- 150 μM % change after addition [1, 7]: 0%
- 500 μM % change after addition [1, 8]: 40%

Structure (SMILES): C[C@H](Oc1ccc(Br)cc1)C(=O)O [Compound C8, (2S)-2-(4-bromophenoxy)propanoic acid]
- increase in running distance on Day Two compared to Day One (rats [3]): around 150%
- contractile force at elevated K+ and TTX (isolated human muscles): markedly recovery
- 150 μM % change after addition [1, 7]: 23%
- nerve-stimulated contractile force, % of force before rocuronium [4]: 81±4%
- 50 μM % change after addition ([2]; 50 μM compound, 3.5 mM Mg2+, % change in AUC force vs column 3 (after 70 min at elevated Mg2+)): 13 ± 4%
- 100 μM % change after addition ([2]; 100 μM compound, 3.5 mM Mg2+, % change in AUC force vs column 3 (after 70 min at elevated Mg2+)): 26 ± 5%
- rotarod running performance after injection (rats [5]; 20 mg/kg I.P.): decline was reduced
- rotarod running performance after injection (rats [5]; 30 mg/kg I.P.): clear recovery of performance
- effect of combination on recovery of neuromuscular transmission (soleus muscles): unexpected synergistic effect
- EPP amplitude compared to control conditions (rat soleus muscle): significantly larger EPPs
- CI_obs [6]: 48.69 mL/h
- VD_obs [6]: 259.62 mL

Structure (SMILES): Cl.NCC(Oc1ccc(F)cc1)C(=O)O (stereo not shown) [Compound C9, 3-amino-2-(4-fluorophenoxy)propanoic acid hydrochloride]
- 150 μM % change after addition [1, 7]: −13%
- 500 μM % change after addition [1, 8]: 5%

Structure (SMILES): CC(Oc1ccc(Cl)cc1)C(=O)Oc1ccc(Cl)cc1 (stereo not shown) [Compound C11, 4-chlorophenyl 2-(4-chlorophenoxy)propanoate]
- 150 μM % change after addition [1]: 54%

Structure (SMILES): COCC(C)C(Oc1ccc(Br)cc1)C(=O)O (stereo not shown) [Compound C21, 2-(4-bromophenoxy)-4-methoxy-3-methylbutanoic acid]
- 150 μM % change after addition [1, 7]: 7%
- 500 μM % change after addition [1, 8]: 36%
